Source: patent US8324190B2, “Treatment of proliferative disorders with amino-substituted (E)-2,6- dialkoxystyryl 4-substituted benzylsulfones” (Temple University—Of The Commonwealth System of Higher …, priority 2002, dated 2012)

Assays:
Assay in all cases: Tumor cell viability assay, Trypan blue exclusion
Type in all cases: cell-based
Conditions in all cases: cell viability after 96 hours
[1] = tested on: non-small cell lung carcinoma cell line H157
Protocol: (§1) BT-20 is an estrogen-unresponsive cell line. NIH/3T3 and HFL are normal murine and human fibroblasts, respectively. BT-20, DLD-1 and H157 were grown in Dulbecco's modified Eagle's medium (DMEM) containing 10% fetal bovine serum supplemented with penicillin and streptomycin. DU145 was cultured in RPMI with 10% fetal bovine serum containing penicillin and streptomycin. NIH3T3 and HFL cells were grown in DMEM containing 10% calf serum supplemented with penicillin and streptomycin. Cells were plated at density levels of 1.0×10^5 cells per well in six-well plates. Cell cultures were maintained at 37° C. in a humidified atmosphere of 5% CO2. Cells were treated with compounds of the invention at various concentrations. Cell viability was determined after 96 hours by the Trypan blue exclusion method. […] The number of viable cells remaining after 96 hours of treatment was determined using hemacytometer following trypan blue staining. The number of viable cells has been plotted as the percent of Vehicle treated (control) cells.

[2] = tested on: breast adenocarcinoma cell line BT-20
Protocol: as §1

[3] = tested on: colorectal carcinoma cell line DLD-1
Protocol: as §1

[4] = tested on: prostate carcinoma cell line DU-145
Protocol: as §1

Measured: IC50

(E)-2,4,6-Trimethoxystyryl-3-amino-4-methoxybenzylsulfone-D-serineamide [Example 15]
< 10 µM: all assays above

(E)-2,4,6-Trimethoxystyryl-3-amino-4-methoxybenzylsulfone-L-lysineamide [Example 13]
< 10 µM: all assays above

(E)-2,4,6-Trimethoxystyryl-3-amino-4-methoxybenzylsulfone-L-serineamide [Example 14]
< 10 µM: all assays above
